The nature of this series: solvent given as SMILES.
The mark [1] stands for this setting: in O=P(c1ccccc1)(c1ccccc1)c1ccccc1Oc1ccccc1P(=O)(c1ccccc1)c1ccccc1.

Molecules are shown by their SMILES. Several values for one entry are separate records, joined by “and”; a condition that tells them apart may be missing. Equal values may be shown once.

`CCCCCCCCCCCCN1C(=O)c2ccc3c4ccc5c6c(ccc(c7ccc(c2c37)C1=O)c64)C(=O)N(CCCCCCCCCCCC)C5=O` registered a fluorescence lifetime (in CN(C)C=O) of 4.1 ns.

In the case of `CCn1c(=O)nc2n(C)c3cc(C)ccc3nc-2c1=O`, the fluorescence lifetime turned out to be 7 ns (in CC#N), 6.3 ns (in CO) and 6.5 ns (in ClCCCl).

`c1cc2c3c(c1)OCCCCCCCCOc1cccc(c1-c1c4ccccc4c-3c3ccccc13)OCCCCCCCCO2` had a fluorescence lifetime (in C1CCCCC1) of 8.01 ns.

Where the note is “in CC(C)(C)c1ccc(-n2c3ccc([Si](c4ccccc4)(c4ccccc4)c4ccccc4)cc3c3cc([Si](c4ccccc4)(c4ccccc4)c4ccccc4)ccc32)cc1”, `CC1(C)c2ccccc2N(c2ccc(-c3nc([C@]45CC6CC(C[C@@H](C6)C4)C5)nc([C@]45C[C@H]6C[C@@H](C[C@H](C6)C4)C5)n3)cc2)c2ccccc21` showed a fluorescence lifetime of 14.4 ns.

`Nc1ccc2cn[nH]c2c1`: the fluorescence lifetime by setting is: (in C1CCCCC1) 4 ns; (in CC#N) 5.4 ns; (in CO) 3.1 ns; (in O) 4.4 ns.

In turn, `CCN(CC)c1ccc2c(c1)oc(=O)c1cnc3c(c(C)nn3-c3ccccc3)c12` showed a fluorescence lifetime (in ClCCl) of 3.34 ns.

For the molecule `COc1cc2cc(-c3ccc(C(=O)OCOC(C)=O)cc3C(=O)OCOC(C)=O)oc2cc1N1CCOCCOCCN(c2cc3oc(-c4ccc(C(=O)OCOC(C)=O)cc4C(=O)OCOC(C)=O)cc3cc2OC)CCOCCOCC1`, the fluorescence lifetime (in O) was 0.52 ns.

As for `CCOC(=O)C1=CN(c2ccccc2)C=C(C(=O)OCC)C1c1ccccc1`, the fluorescence lifetime stood at 8.98 ns (in C1CCOC1) and 15.1 ns (in CO).

As to `C[n+]1ccc2c(ccc3c[n+](C)c4ccc5ccccc5c4c32)c1`, for the setting “in CC#N”, the fluorescence lifetime is 10.2 ns.

Molecule `CCCCC(CC)Cn1c2cc(-c3ccc(N(c4ccccc4)c4ccccc4)cc3)c(C#N)cc2c2cc(C#N)c(-c3ccc(N(c4ccccc4)c4ccccc4)cc3)cc21` (stereo unspecified) showed a fluorescence lifetime (in ClCCl) of 3.23 ns.

As for `O=C1/C(=C2\Sc3ccccc3C2=O)Sc2ccccc21`, the fluorescence lifetime runs as follows: (in C1COCCO1) 12.4 ns; (in CN(C)C=O) 6.9 ns; (in CO) 0.68 ns; (in CS(C)=O) 0.17 ns; (in c1ccccc1) 12.2 ns.

With `Nc1cccc2c1C(=O)c1ccccc1-2`, the fluorescence lifetime by setting is: (in C1CCCCC1) 0.8 ns; (in CC#N) 2.3 ns; (in c1ccccc1) 1.4 ns.

`Cc1cccc2nc3c(=O)[nH]c(=O)[nH]c3nc12`: the fluorescence lifetime reads like this: (in C1COCCO1) 0.5 ns; (in CC#N) 0.7 ns; (in CCO) 1.35 ns; (in CO) 1.6 ns; (in ClCCCl) 0.74 ns; (in O) 7.3 ns.

Under “in ClCCl”, `CCCCc1ccc2c(c1)c1ccc3cccc4c3c1c1c2c2cccc3ccc5c6cc(CCCC)ccc6c4c1c5c32` came in with a fluorescence lifetime of 1.74 ns.

In turn, `C[Si](C)(C)c1ccc(-c2ccc(-c3ccc(-c4ccc(-c5ccc([Si](C)(C)C)cc5)cc4)c4nsnc34)cc2)cc1` returned a fluorescence lifetime (in C1CCOC1) of 5.4 ns.

`CCCCCCCCCCCCN1C(=O)c2c(c3ccc4cc(-c5ccc(C(F)(F)F)cc5)c(OC)cc4c3c3c2ccc2cc(-c4ccc(C(F)(F)F)cc4)c(OC)cc23)C1=O` yielded a fluorescence lifetime (in ClCCl) of 6.39 ns.

On to `c1ccc(-c2nnc(-c3cc(-c4nnc(-c5ccccc5)o4)c(-n4c5ccccc5c5ccccc54)cc3-n3c4ccccc4c4ccccc43)o2)cc1`, for which the fluorescence lifetime is, setting by setting: (in Cc1ccccc1) 4.9 ns; under setting [1], 8.6 ns.

With `CCN(CC)/C(C)=N\c1ccc2c3c(cccc13)C(=O)c1ccccc1-2`, where the note is “in ClC(Cl)Cl”, the fluorescence lifetime was determined as 8.07 ns.

In the case of `CCCCCCN1C(=O)C(c2ccc(-c3ccc(-n4c5ccccc5c5ccccc54)cc3)cc2)=C(c2ccc(-c3ccc(-n4c5ccccc5c5ccccc54)cc3)cc2)C1=O`, the fluorescence lifetime runs as follows: (in ClC(Cl)Cl) 6.4 ns; (in c1ccc2c(c1)c1ccccc1n2-c1ccc(-c2ccc(-n3c4ccccc4c4ccccc43)cc2)cc1) 5.5 ns.

Molecule `Cc1cccc2nc3[nH]c(=O)[nH]c(=O)c3nc12` gave a fluorescence lifetime (in CC#N) of 0.9 ns.

In the case of `CC1(C)c2ccccc2N(c2ccc(-c3nnc(-c4ccccc4)o3)cc2)c2ccccc21`, the fluorescence lifetime by setting is: (in Cc1ccccc1) 7 ns; (in c1ccc(-n2c(-c3c(-n4c5ccccc5c5ccccc54)cccc3-n3c4ccccc4c4ccccc43)nc3ccccc32)cc1) 7.8 ns.

Consider `F[B-]1(F)n2c(Nc3cccc4cccnc34)ccc2C(c2ccccc2)=C2C=CC(Cl)=[N+]21`, for which the fluorescence lifetime was 3.21 ns (in C1CCCCC1) and 0.82 ns (in Cc1ccccc1).

Consider `C[Si]1(C)c2ccc(-c3ccc(N(c4ccccc4)c4ccccc4)cc3)cc2C=Cc2cc(-c3ccc(N(c4ccccc4)c4ccccc4)cc3)ccc21`, for which the fluorescence lifetime (in ClCCl) amounted to 5.9 ns.

For `Cn1c(=O)cc(C(=O)c2ccccc2)c2sc(-c3ccc(N(c4ccccc4)c4ccccc4)cc3)cc21`, the fluorescence lifetime (in ClCCl) is 0.99 ns.

The molecule `N#CC1=c2c3cccc4cccc(c43)n2[B-](F)(F)[n+]2ccccc21` came in with a fluorescence lifetime (in ClCCl) of 8.7 ns.

`CC1(C)OB(c2cc3ccc4cc(B5OC(C)(C)C(C)(C)O5)cc5ccc(c2)c3c45)OC1(C)C` showed a fluorescence lifetime (in Cc1ccccc1) of 36 ns.

As for `C[Si](C)(C)c1cccc2ccccc12`, where the note is “in C1CCCCC1”, the fluorescence lifetime stood at 64 ns.

Consider `c1cc2cccc3c4cccc5cccc(c(c1)c23)c54`, for which the fluorescence lifetime (in C1CCCCC1) worked out at 4.7 ns.

Regarding `CC(=O)Nc1ccc2c3c(cccc13)C(=O)c1ccccc1-2`, the fluorescence lifetime was 10.3 ns (in CC#N); 9.7 ns (in CC(C)=O); 9.3 ns (in CC(C)O); 1.9 ns (in CCCCOCCCC); 6.6 ns (in CCOC(C)=O); 2.6 ns (in CCOCC). Also, the fluorescence lifetime is, setting by setting: (in CO) 8.3 ns; (in Cc1ccccc1) 2.8 ns; (in Clc1ccccc1) 5.9 ns; (in N#Cc1ccccc1) 9.8 ns; (in O=C1CCCCC1) 8.3 ns.

The molecule `COc1cc(OC)c2c(c1)c1cc3oc(=O)cc(C)c3cc1c1cc(OC)cc(OC)c12` returned a fluorescence lifetime (in ClC(Cl)Cl) of 7.5 ns.

On to `N#C/C(=C\c1ccc(C(F)(F)F)cc1)c1nc(-c2ccc(Cl)cc2)cs1`, for which, for the setting “in CC#N”, the fluorescence lifetime came to 1.2 ns.

`N#Cc1ccc(N(c2ccccc2)c2ccc3ccc4c(N(c5ccccc5)c5ccc(C#N)cc5)ccc5ccc2c3c54)cc1` displayed a fluorescence lifetime (in ClCCl) of 2.7 ns.

`CN(C)c1ccc2nc3c(cc2c1)c(-c1ccccc1)nn3-c1ccccc1`: the fluorescence lifetime came to 16.1 ns (in C1CCCCC1); 21 ns (in C1CCOC1); 24.5 ns (in CC#N); 23.4 ns (in CC(C)=O); 20.1 ns (in CCCCCl); 18.4 ns (in CCCCOCCCC). For the same molecule, for the setting “in CN(C)C=O”, the fluorescence lifetime is 22.3 ns.

The molecule `Cc1nc(-c2cc(N)ccc2O)n2c1CCCC2` came in with a fluorescence lifetime (in ClCCl) of 0.834 ns.

With `C[n+]1cc2ccc3c[n+](C)c4ccccc4c3c2c2ccccc21`, the fluorescence lifetime (in CC#N) came out at 5.8 ns.

In the case of `c1ccc2c(c1)Oc1ccccc1N2c1ccc(-c2nnc(-c3ccc(N4c5ccccc5Oc5ccccc54)cc3)o2)cc1`, the fluorescence lifetime (in Cc1ccccc1) stood at 21.2 ns and the fluorescence lifetime under setting [1] was 11.2 ns.

`CC(C)(C)NC(=O)c1cccc2ccc3c4ccccc4c4ccccc4c3c12` yielded a fluorescence lifetime (in ClCCl) of 1.74 ns.

Consider `Nc1ccc(N2C(=O)c3ccc4c5ccc6c7c(ccc(c8ccc(c3c48)C2=O)c75)C(=O)N(c2ccc(N)cc2)C6=O)cc1`, for which the fluorescence lifetime (in CN(C)C=O) amounted to 3.8 ns.

In the case of `O=c1c2cccc3cccc(c32)c2nc3c(F)c(F)c(F)c(F)c3n12`, under “in ClCCl”, the fluorescence lifetime was determined as 9 ns.

In the case of `COc1ccc(/C=C/C2=[O+][B-](F)(F)OC(/C=C/c3ccc(OC)cc3)=C2c2ccccc2)cc1`, the fluorescence lifetime is, setting by setting: (in CC#N) 1.5 ns; (in CC(C)=O) 1.43 ns; (in CCOC(C)=O) 1.18 ns; (in CCOCC) 0.9 ns; (in ClC(Cl)(Cl)Cl) 0.7 ns; (in ClCCl) 1.35 ns.

For the setting “in CC#N”, `Cn1ccc(=O)n(C)c1=O` registered a fluorescence lifetime of 0.0001 ns.

Regarding `Cc1cc2c(o1)c(C)cc1ccc(=O)oc12`, the fluorescence lifetime came to 0.02 ns (in C1CCCCC1); 0.02 ns (in C1COCCO1); 0.02 ns (in CC#N); 2.3 ns (in CCO); 2.8 ns (in OCC(F)(F)F).

In the case of `Cc1ccc(-c2ccc(/C=C/c3ccc(F)cc3)cn2)nc1`, the fluorescence lifetime (in CC#N) amounted to 0.99 ns.

For `CC1(C)c2ccccc2N(c2ccc(-c3cc(-c4ccccc4)nc(-c4ccccc4)n3)cc2)c2ccccc21`, the fluorescence lifetime was 4.23 ns (in Cc1ccccc1) and 25 ns (in ClCCl).

For the setting “in C1CCOC1”, `COc1ccc(C(=Cc2ccc(C=O)cc2)c2ccc(OC)cc2)cc1` gave a fluorescence lifetime of 6.7 ns.

As for `COC(=O)C(NC(=O)OC(C)(C)C)c1ccc2oc(-c3cc(OC)ccc3OC)nc2c1` (stereo unspecified), the fluorescence lifetime is 1.93 ns (in CC1CCCCC1), 2.03 ns (in CC#N) and 2.03 ns (in CO).

`CC(C)(C)c1ccc2c(c1)c1cc(C(C)(C)C)ccc1n2-c1ccc(C(=CC#N)c2ccc(-n3c4ccc(C(C)(C)C)cc4c4cc(C(C)(C)C)ccc43)cc2)cc1` had a fluorescence lifetime (in Cc1ccccc1) of 3.86 ns.

The molecule `C(#Cc1ccc2c(c1)c1cc(C#Cc3ccccc3)ccc1n2-c1cc2ccccc2c2ccccc12)c1ccccc1` had a fluorescence lifetime (in ClCCl) of 4.27 ns.

As to `c1ccc(-c2nc(-c3ccccc3)nc(-c3cc(-n4c5ccccc5c5ccccc54)c(-n4c5ccccc5c5ccccc54)c(-n4c5ccccc5c5ccccc54)c3)n2)cc1`, where the note is “in O=P(c1ccccc1)(c1ccccc1)c1ccc2oc3ccc(P(=O)(c4ccccc4)c4ccccc4)cc3c2c1”, the fluorescence lifetime was 13.1 ns.

Molecule `CC(C)c1cc(C(C)C)c(B2c3cc(-n4c5ccccc5c5ccccc54)ccc3N(c3ccccc3)c3ccc(-n4c5ccccc5c5ccccc54)cc32)c(C(C)C)c1` showed a fluorescence lifetime (in c1cc(-c2cccc(-n3c4ccccc4c4ccccc43)c2)cc(-n2c3ccccc3c3ccccc32)c1) of 15 ns.

On to `Nc1cccnc1`, for which the fluorescence lifetime is, setting by setting: (in C1CCCCC1) 26.5 ns; (in CC#N) 4.6 ns; (in CCO) 6.5 ns; (in CCOCC) 7.7 ns; (in O) 21.1 ns.

Take `O=c1oc2ccc3ccccc3c2nc1-c1ccccc1`: under “in c1ccccc1”, the fluorescence lifetime was 2.2 ns and 2.6 ns.

The record behind these values is the Deep4Chem optical property database.
